We go through 14 compounds from PubChem BioAssay (NCI).

Test systems include SR leukemia; LOX IMVI melanoma; NCI/ADR-RES ovarian; NCI-H522 lung; SK-OV-3 ovarian; RPMI-8226 leukemia; HS 578T breast; OVCAR-4 ovarian; MALME-3M melanoma; HOP-62 NSCLC.
Assay in all cases: DTP human tumour cell line panel, 48 h

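Five compound concentrations were applied to cells in 96-well plates for 48 hours; endpoints were derived by simple linear interpolation of the resulting dose-response curve. Definition used: TGI = concentration required for complete inhibition of growth.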

By TGI is commonly meant the concentration at which net growth stops. Read a low TGI as more potent growth arrest. On to `O=[N+]([O-])c1nccn1CCCNCCCn1ccnc1[N+](=O)[O-]`, for which the TGI in the assay on SR leukemia, in the assay on LOX IMVI melanoma, in the assay with NCI/ADR-RES ovarian, in the assay on NCI-H522 lung, in the assay on SK-OV-3 ovarian and in the assay on RPMI-8226 leukemia was greater than 100 µM throughout. The TGI with HS 578T breast, in the assay with OVCAR-4 ovarian, with MALME-3M melanoma and in the assay on HOP-62 NSCLC was greater than 100 µM each time.

Regarding `NC(N)=NS(=O)(=O)c1ccc(NC(=O)c2ccc3[nH]c4ccccc4c(=O)c3c2)cc1`, the total growth inhibition concentration (TGI) with SR leukemia, in the assay on LOX IMVI melanoma, with NCI/ADR-RES ovarian, in the assay with NCI-H522 lung, in the assay with SK-OV-3 ovarian and in the assay on RPMI-8226 leukemia was greater than 100 µM throughout. For the same compound, the TGI with HS 578T breast, in the assay with OVCAR-4 ovarian, with MALME-3M melanoma and in the assay with HOP-62 NSCLC was greater than 100 µM in each case.

Take `O=C(O)c1ccc(Nc2nc3cc(C(F)(F)F)ccc3nc2-c2ccccc2)cc1`: the TGI in the assay with SR leukemia is greater than 100 µM; with LOX IMVI melanoma, 32.5 µM; in the assay on NCI/ADR-RES ovarian it was 70.2 µM; with NCI-H522 lung, 32.8 µM; with RPMI-8226 leukemia, 83.1 µM; in the assay with HS 578T breast, 49.4 µM. Besides, the results for the total growth inhibition concentration (TGI) in the assay on MALME-3M melanoma and in the assay on HOP-62 NSCLC were greater than 100 µM and 43.1 µM, respectively.

For `C=CCn1cnc2c(=O)[nH]c(Nc3ccccc3)nc21`, the concentration for total growth inhibition (TGI) in the assay with SR leukemia, in the assay with LOX IMVI melanoma, with NCI/ADR-RES ovarian, with NCI-H522 lung, in the assay on SK-OV-3 ovarian and in the assay with RPMI-8226 leukemia was greater than 100 µM in each case. Further, the TGI with HS 578T breast, in the assay on OVCAR-4 ovarian, in the assay with MALME-3M melanoma and in the assay on HOP-62 NSCLC was greater than 100 µM throughout.

Take `COCCOCCOCCOc1ccc(C(C#N)N(CCc2ccccc2)C(=O)c2cc(C(=O)N(CCc3ccccc3)C(C#N)c3ccc(OCCOCCOCCOC)cc3)cc(C(=O)N(CCc3ccccc3)C(C#N)c3ccc(OCCOCCOCCOC)cc3)c2)cc1` (configuration not stated): the total growth inhibition concentration (TGI) in the assay on SR leukemia, in the assay with LOX IMVI melanoma, in the assay with NCI/ADR-RES ovarian, in the assay on NCI-H522 lung, in the assay with SK-OV-3 ovarian and with HS 578T breast was greater than 100 µM throughout. Besides, the TGI in the assay with OVCAR-4 ovarian, with MALME-3M melanoma and in the assay on HOP-62 NSCLC was greater than 100 µM each time.

`CC1(C)CN=C(Nc2ccc(F)c(F)c2)S1`: the TGI with SR leukemia, in the assay on LOX IMVI melanoma, with NCI/ADR-RES ovarian, in the assay with NCI-H522 lung, in the assay on SK-OV-3 ovarian and in the assay on RPMI-8226 leukemia was greater than 100 µM throughout. Also, the concentration for total growth inhibition (TGI) in the assay with HS 578T breast, in the assay with OVCAR-4 ovarian, in the assay with MALME-3M melanoma and with HOP-62 NSCLC was greater than 100 µM in each case.

On to `CC(=O)Oc1c(C)c2c(c3ccccc13)OC(C)(C)C2`, for which the TGI with SR leukemia is 52.8 µM; with NCI/ADR-RES ovarian, 51.4 µM; with NCI-H522 lung, 36.7 µM; with SK-OV-3 ovarian it was 66.3 µM; in the assay with RPMI-8226 leukemia it was 39.1 µM; in the assay on HS 578T breast, 53.9 µM. Moreover, the figures for the TGI with OVCAR-4 ovarian, with MALME-3M melanoma and with HOP-62 NSCLC were 30 µM, 30 µM and 34.5 µM, respectively.

For `NC(=O)C(Nc1ccc(Cl)cc1)c1cc2cc(Br)ccc2nc1Cl` (configuration not stated), the TGI in the assay on SR leukemia, in the assay with LOX IMVI melanoma, in the assay with NCI/ADR-RES ovarian, with NCI-H522 lung, with SK-OV-3 ovarian and with RPMI-8226 leukemia was greater than 50 µM in each case. For the same compound, the total growth inhibition concentration (TGI) in the assay on HS 578T breast, with OVCAR-4 ovarian, in the assay on MALME-3M melanoma and in the assay with HOP-62 NSCLC was greater than 50 µM each time.

For the compound `CCN(CC)COC(=S)S`, the TGI in the assay on SR leukemia was 25.9 µM; in the assay with LOX IMVI melanoma it was greater than 100 µM; in the assay on NCI/ADR-RES ovarian, greater than 100 µM; with NCI-H522 lung it was greater than 94.7 µM; with SK-OV-3 ovarian, greater than 100 µM; in the assay on HS 578T breast, greater than 100 µM. In addition, the TGI with OVCAR-4 ovarian, in the assay on MALME-3M melanoma and with HOP-62 NSCLC was greater than 100 µM throughout.

For `COC(=O)c1c(C(=O)OC)c2c3ccccc3n(C)c2c2c1c1ccccc1n2C`, the total growth inhibition concentration (TGI) with SR leukemia, in the assay on LOX IMVI melanoma, with NCI/ADR-RES ovarian, with NCI-H522 lung, with SK-OV-3 ovarian and in the assay with RPMI-8226 leukemia was greater than 100 µM each time. Also, the TGI was greater than 100 µM in the assay on HS 578T breast, greater than 100 µM with OVCAR-4 ovarian, greater than 100 µM in the assay on MALME-3M melanoma and 75 µM in the assay with HOP-62 NSCLC.

Consider `Oc1ccc(-c2cn3cc(C(F)(F)F)ccc3n2)cc1`, for which the concentration for total growth inhibition (TGI) is greater than 100 µM in the assay on SR leukemia; greater than 100 µM in the assay with LOX IMVI melanoma; greater than 100 µM in the assay with NCI/ADR-RES ovarian; 88 µM in the assay with NCI-H522 lung; greater than 100 µM in the assay with SK-OV-3 ovarian; greater than 100 µM in the assay on HS 578T breast. For the same compound, the TGI with OVCAR-4 ovarian, with MALME-3M melanoma and in the assay on HOP-62 NSCLC was greater than 100 µM throughout.

For `CN(C)Cc1cc(N=Nc2ccc(Cl)cc2)ccc1O`, the concentration for total growth inhibition (TGI) in the assay on SR leukemia turned out to be 39.8 µM; in the assay with LOX IMVI melanoma, 23.5 µM; in the assay with NCI/ADR-RES ovarian, 33.4 µM; in the assay with NCI-H522 lung, 26.3 µM; in the assay on SK-OV-3 ovarian it was 33.8 µM; with HS 578T breast it was 31.3 µM. In addition, the TGI was 45.7 µM in the assay on OVCAR-4 ovarian, 27.2 µM in the assay on MALME-3M melanoma and 21.7 µM in the assay with HOP-62 NSCLC.

In the case of `CC1OC(O[C@H]2CC[C@]3(C=O)[C@H]4CC[C@]5(C)[C@H](C6=CC(=O)OC6)CC[C@]5(O)[C@@H]4C=C[C@]3(O)C2)CC(O)C1O` (some centres not stated), the TGI was 0.682 µM with SR leukemia; 0.652 µM in the assay on LOX IMVI melanoma; 0.623 µM in the assay on NCI/ADR-RES ovarian; 0.241 µM in the assay on NCI-H522 lung; 1.02 µM in the assay with SK-OV-3 ovarian; 2.37 µM in the assay with RPMI-8226 leukemia. The concentration for total growth inhibition (TGI) with HS 578T breast turned out to be 4.2 µM; in the assay on OVCAR-4 ovarian, 0.838 µM; in the assay with MALME-3M melanoma it was 0.361 µM; in the assay with HOP-62 NSCLC, 0.503 µM.

With `CC(=O)Oc1c2oc3cc(O)c(O)cc3c2c(OC(C)=O)c2oc3cc(O)c(O)cc3c12`, the TGI in the assay with SR leukemia is greater than 100 µM; in the assay with LOX IMVI melanoma, greater than 100 µM; in the assay with NCI/ADR-RES ovarian, 86.7 µM; with NCI-H522 lung, 35.8 µM; with SK-OV-3 ovarian, 59.4 µM; with HS 578T breast, 36.4 µM. In addition, the total growth inhibition concentration (TGI) in the assay on OVCAR-4 ovarian was 62.3 µM; in the assay on MALME-3M melanoma, greater than 100 µM; in the assay on HOP-62 NSCLC, 35.9 µM.
